In the CheMixHub viscosity set:
± gives the uncertainty stated by the source.

Test: xn = mol fraction of the nth substance listed
Details: 100 kPa

CS(=O)(=O)O + O
viscosity [mPa·s]
Details | 293.15 K | 298.15 K | 303.15 K | 308.15 K | 313.15 K | 318.15 K
x1 = 0.003409 | 1.037 ± 0.1 | 0.9229 ± 0.093 | 0.827 ± 0.083 | 0.7471 ± 0.075 | – | –
x1 = 0.004307 | 1.042 ± 0.1 | 0.9279 ± 0.093 | 0.833 ± 0.084 | – | – | –
x1 = 0.005194 | 1.051 ± 0.11 | 0.9391 ± 0.094 | 0.8431 ± 0.085 | – | – | –
x1 = 0.006086 | 1.064 ± 0.11 | 0.9475 ± 0.095 | 0.8496 ± 0.085 | – | – | –
x1 = 0.006979 | 1.073 ± 0.11 | 0.9565 ± 0.096 | 0.8598 ± 0.086 | – | – | –
x1 = 0.007862 | 1.08 ± 0.11 | 0.964 ± 0.097 | 0.866 ± 0.087 | – | – | –
x1 = 0.008752 | 1.088 ± 0.11 | 0.972 ± 0.097 | 0.873 ± 0.088 | – | – | –
x1 = 0.0177 | 1.173 ± 0.12 | 1.048 ± 0.11 | 0.9423 ± 0.095 | 0.8535 ± 0.086 | 0.7777 ± 0.078 | 0.713 ± 0.072
x1 = 0.02629 | 1.264 ± 0.13 | 1.131 ± 0.11 | 1.02 ± 0.1 | 0.9254 ± 0.093 | 0.8437 ± 0.085 | 0.7737 ± 0.078
x1 = 0.03475 | 1.351 ± 0.14 | 1.211 ± 0.12 | 1.094 ± 0.11 | 0.9939 ± 0.1 | 0.9081 ± 0.091 | 0.834 ± 0.084
x1 = 0.04308 | 1.441 ± 0.14 | 1.293 ± 0.13 | 1.169 ± 0.12 | 1.064 ± 0.11 | 0.9738 ± 0.098 | 0.8939 ± 0.09
x1 = 0.05122 | 1.523 ± 0.15 | 1.368 ± 0.14 | 1.237 ± 0.12 | 1.126 ± 0.11 | 1.031 ± 0.1 | 0.948 ± 0.095
x1 = 0.05919 | 1.609 ± 0.16 | 1.448 ± 0.15 | 1.311 ± 0.13 | 1.193 ± 0.12 | 1.094 ± 0.11 | 1.007 ± 0.1
x1 = 0.06721 | 1.728 ± 0.17 | 1.556 ± 0.16 | 1.41 ± 0.14 | 1.285 ± 0.13 | 1.176 ± 0.12 | 1.083 ± 0.11
x1 = 0.07493 | 1.826 ± 0.18 | 1.647 ± 0.17 | 1.493 ± 0.15 | 1.361 ± 0.14 | 1.247 ± 0.12 | 1.148 ± 0.12
x1 = 0.08256 | 1.934 ± 0.19 | 1.745 ± 0.17 | 1.583 ± 0.16 | 1.444 ± 0.14 | 1.323 ± 0.13 | 1.218 ± 0.12
x1 = 0.09015 | 2.046 ± 0.21 | 1.847 ± 0.19 | 1.676 ± 0.17 | 1.529 ± 0.15 | 1.402 ± 0.14 | 1.291 ± 0.13
x1 = 0.09748 | 2.16 ± 0.22 | 1.95 ± 0.2 | 1.769 ± 0.18 | 1.615 ± 0.16 | 1.48 ± 0.15 | 1.363 ± 0.14
x1 = 0.1048 | 2.299 ± 0.23 | 2.076 ± 0.21 | 1.885 ± 0.19 | 1.719 ± 0.17 | 1.576 ± 0.16 | 1.452 ± 0.15
x1 = 0.112 | 2.411 ± 0.24 | 2.177 ± 0.22 | 1.977 ± 0.2 | 1.803 ± 0.18 | 1.652 ± 0.17 | 1.519 ± 0.15
